Among the data in patent US20250084041A1, “ANTIMICROBIAL COMPOUNDS AND METHODS” (Curza Global, LLC, priority 2021, published 2025) are IC50 and MIC values, retold here.

Each structure is given as a SMILES string. Counter-ions that a name gives are not always drawn.

The subject of one assay is E. coli S30 extract. Kind of assay: E. coli S30 extract: inhibition of bacterial protein synthesis (luciferase). The assay is classed as biochemical. As to conditions: 37° C. 1 hour. The procedure: E. coli S30 extract: Inhibition of bacterial protein synthesis was determined using the E. coli S30 Extract System for Circular DNA (Promega catalog #L-2010) and Luciferase Assay Reagent (Promega catalog #E1500) with slight modifications to a published protocol. Fyfe, C., Sutcliffe, J. A. and Grossman, T. H. (2012) “Development and characterization of a Pseudomonas aeruginosa in vitro coupled transcription-translation assay system for evaluation of translation inhibitors” J. Microbiol. Methods 90(3), 256-261.
Compounds were serial diluted in 0.5 mL microcentrifuge tubes by mixing and transferring 50 μL from the highest concentration to 50 μL of water, mixing and transferring 50 μL of this 2-fold dilution to 50 μL of water. This mixing and transferring was repeated so that there are a total of 8 tubes with serial dilutions of compound at 10× the desired screening concentration that are ultimately diluted to 1× by the addition of S30 luciferase synthesis mixture. Serial dilutions of compounds were added (2 μL) to wells in a black round bottom 96-well plate. Water (2 μL) was used as a “no inhibitor” control in 4 wells/plate. No DNA control reaction mixture (20 μL; see below) was used as a control in 4 wells/plate for background luminescence. S30 luciferase synthesis mixture (18 μL; see below) was added to wells with compounds or water mixture and incubated at 37° C. for 1 hour. Reactions were stopped by transferring to 4° C. refrigerator for 5 minutes then 25 μL of luciferase activity mix was added. Luminescence was measured using a BioTek Synergy HTX plate reader. % Inhibition was determined relative to no inhibitor controls.
• 445 μL S30 extract, circular • 712 μL S30 Premix without amino acids • 4.45 μL pBESTluc™ DNA (1 μg/μL) • 78 μL complete amino acid mixture • 267 μL water
• 20 μL S30 extract, circular • 32 μL S30 Premix without amino acids • 7 μL complete amino acid mixture • 21 μL water

Assay [1] deals with Rabbit Reticulocyte Lysate. Kind of assay: Rabbit Reticulocyte Lysate: inhibition of eukaryotic protein synthesis (luciferase). The assay is classed as biochemical. As to conditions: 30° C. 90 minutes, read-out: Retic. IC50. The procedure:
Inhibition of eukaryotic protein synthesis was determined using the Rabbit Reticulocyte Lysate System, Nuclease-Treated from Promega (catalog #L-4960) with slight modifications to the manufacturer's protocol. Compounds were serial diluted in 0.5 mL microcentrifuge tubes by mixing and transferring 50 μL from the highest concentration to 50 μL of water, mixing and transferring 50 μL of this 2-fold dilution to 50 μL of water. This mixing and transferring was repeated so that there are a total of 8 tubes with serial dilutions of compound at 10× the desired screening concentration that are ultimately diluted to 1× by the addition of rabbit reticulocyte luciferase synthesis mixture. Serial dilutions of compounds were added ([…]) to wells in a black round bottom 96-well plate. Water (2.5 μL) was used as a “no inhibitor” control in 4 wells/plate. No RNA control reaction mixture ([…]; see below) was used as a control in 4 wells/plate for background luminescence. Rabbit reticulocyte luciferase synthesis mixture (22.5 μL; see below) was added to wells with compounds or water mixture and incubated at 30° C. for 90 minutes. Luciferase assay reagent (25 μL) was added with luminescence measured using a BioTek Synergy HTX plate reader. % Inhibition was determined relative to no inhibitor controls.
• 1,000 μL rabbit reticulocyte lysate • 5.7 μL Luciferase Control RNA (1 μg/μL) • 26 μL complete amino acid mixture • 395 μL water
• 70 μL rabbit reticulocyte lysate • 2 μL complete amino acid mixture • 28 μL water

In a further assay the test system is A. baumannii (Ab). In words: Broth microdilution MIC, A. baumannii. The assay is classed as cell-based. The note with it: Acinetobacter baumannii, read-out: Ab + bicarb 25 (MIC). The procedure:
(§1) A certified BSL-2 laboratory was used for testing. Compounds were evaluated using the broth microdilution minimum inhibitory concentration (MIC) and minimum bactericidal concentration (MBC) assays defined by Clinical and Laboratory Standards Institute (CLSI) in the M26-A guideline against S. aureus (Sa), E. coli (Ec), K. pneumoniae (Kp), A. baumannii (Ab), E. faecalis (Ef) and P. aeruginosa (Pa).
(§2) MICs were determined using the Clinical Laboratory and Standards Institute (CLSI) Broth Microdilution Method with slight modification. Clinical and Laboratory Standards Institute (2012). “Methods for dilution antimicrobial susceptibility tests for bacteria that grow aerobically; approved standard, 9th ed. M07-A9. Clinical and Laboratory Standards Institute, Wayne, PA.” Serial two-fold dilutions of compounds are prepared in sterile clear round-bottom 96-well plates.
(§3) To prepare microdilution trays, two-fold dilutions of antimicrobial agent are prepared in growth medium: Cation-Adjusted Mueller-Hinton Broth (CAMHB), or CAMHB supplemented with sodium bicarbonate (25 mM final concentration prepared from a 1.0 M stock solution) or CAMHB supplemented with heat inactivated human serum (Fisher Cat. #BP2657100) 0-50% by adding 200 μL of the highest concentration to be tested (64 μg/mL, for example) in row A, mixing and transferring 100 μL from row A to 100 μL growth medium in row B, then repeating the mixing and transferring through row H of the 96-well plate, discarding the excess 100 μL remaining. This slight modification to the CLSI protocol enables evaluation of MICs for 3 compounds per plate in triplicate, albeit with only 8 compound dilutions (CLSI protocol enables 2 compounds in triplicate with 10 dilutions). Bacterial suspensions are added to a final concentration of 5×10^4 CFU/well by adding 5 μL of a 1:10 dilution of a 0.5 McFarland suspension (1×10^8 CFU/mL) for each bacterium evaluated. Bacterial suspensions were prepared using the growth method described by CLSI. Well-isolated colonies (3-5 from an agar plate) were selected using a sterile loop and used to inoculate a tube containing 4 mL of CAMHB. The cultures are incubated at 35±2° C. until it achieves or exceeds the turbidity of the 0.5 McFarland standard, determined by measuring A600nm (usually two to six hours). When growth exceeds a 0.5 McFarland standard, the turbidity is adjusted with broth to be equivalent to a 0.5 McFarland standard.

In the next assay the test system is E. faecalis (Ef). In words: Broth microdilution MIC, E. faecalis. The assay is classed as cell-based. The note with it: Enterococcus faecalis, read-out: Ef + bicarb 25 (MIC). The procedure: as §1, §2, §3
In general terms: In broth dilution the organism is exposed to a series of concentrations in liquid medium.

Another assay concerns S. aureus (Sa). In words: Broth microdilution MIC, S. aureus. The assay is classed as cell-based. The note with it: Staphylococcus aureus, read-out: Sa + bicarb 25 (MIC). The procedure:
as §1, §2, §3

The next assay relates to P. aeruginosa (Pa). Kind of assay: Broth microdilution MIC, P. aeruginosa. As to conditions: Pseudomonas aeruginosa, read-out: Pa + bicarb 25 (MIC). The assay is classed as cell-based. The procedure: as §1, §2, §3

Consider `CC(C)(N)C(=O)N1CCN(C(=O)Nc2ccn(C3=CCC(CN4C[C@@H]5[C@@H](N)[C@@H]5C4)CC3)c(=O)n2)CC1` (single isomer, unassigned) [Compound 34, 4-(2-Amino-2-methylpropanoyl)-N-(1-(4-(((exo)-6-amino-3-azabicyclo[3.1.0]hexan-3-yl)methyl)cyclohex-1-en-1-yl)-2-oxo-1,2-dihydropyrimidin-4-yl)piperazine-1-carboxamide hydrochloride salt], for which the IC50 is less than 500 nM in the assay with E. coli S30 extract and no less than 1000 nM in assay [1].
For the molecule `CC1(N)CCN(CC2CC=C(n3ccc(NC(=O)N4CCN(C(=O)C(C)(C)N)CC4)nc3=O)CC2)CC1` (single isomer, unassigned) [Compound 38, 4-(2-Amino-2-methylpropanoyl)-N-(1-(4-((4-amino-4-methylpiperidin-1-yl)methyl)cyclohex-1-en-1-yl)-2-oxo-1,2-dihydropyrimidin-4-yl)piperazine-1-carboxamide hydrochloride salt], the IC50 in the assay with E. coli S30 extract is less than 500 nM; in assay [1] it was no less than 1000 nM.
With `CC(C)(N)C(=O)N1CCN(C(=O)Nc2ccn(C3=CCC(CN[C@H]4CC[C@H](N)CC4)CC3)c(=O)n2)CC1` (single isomer, unassigned) [Compound 40, trans-4-(2-Amino-2-methylpropanoyl)-N-(1-(4-(((4-aminocyclohexyl)amino)methyl)cyclohex-1-en-1-yl)-2-oxo-1,2-dihydropyrimidin-4-yl)piperazine-1-carboxamide hydrochloride salt], the IC50 is less than 500 nM in the assay with E. coli S30 extract and no less than 1000 nM in assay [1].
Take `CC(C)(N)C(=O)N1CCN(C(=O)Nc2ccn(C3=CCC(CN4CCCC(N)CC4)CC3)c(=O)n2)CC1` (single isomer, unassigned) [Compound 42, 4-(2-Amino-2-methylpropanoyl)-N-(1-(4-((4-aminoazepan-1-yl)methyl)cyclohex-1-en-1-yl)-2-oxo-1,2-dihydropyrimidin-4-yl)piperazine-1-carboxamide hydrochloride salt]: the IC50 in the assay on E. coli S30 extract was less than 500 nM; in assay [1] it was no less than 1000 nM.
Take `CC(C)(N)C(=O)N1CCN(C(=O)Nc2ccn(C3CCC(CN4CC(N)C4)CC3)c(=O)n2)CC1` (stereo not shown) [Compound 10, 4-(2-Amino-2-methylpropanoyl)-N-(1-(4-((3-aminoazetidin-1-yl)methyl)cyclohexyl)-2-oxo-1,2-dihydropyrimidin-4-yl)piperazine-1-carboxamide hydrochloride salt]: the IC50 (in the assay on E. coli S30 extract; in assay [1]) was no less than 1000 nM in each case.
As for `CC1(N)CCN(CC2CCC(n3ccc(NC(=O)N4CCN(C(=O)C(C)(C)N)CC4)nc3=O)CC2)CC1` (stereo not shown) [Compound 15, 4-(2-amino-2-methylpropanoyl)-N-(1-(4-((4-amino-4-methylpiperidin-1-yl)methyl)cyclohexyl)-2-oxo-1,2-dihydropyrimidin-4-yl)piperazine-1-carboxamide hydrochloride salt], the MIC with A. baumannii (Ab) and with E. faecalis (Ef) was greater than 32 µg/mL in each case. The IC50 in the assay on E. coli S30 extract is less than 500 nM; in assay [1], no less than 1000 nM.
Consider `CC(C)(N)C(=O)N1CCN(C(=O)Nc2ccn(C3=CCC(CN4C[C@@H]5[C@H](N)[C@@H]5C4)CC3)c(=O)n2)CC1` (stereo partly drawn) [Compound 22, endo-4-(2-Amino-2-methylpropanoyl)-N-(1-(4-((6-amino-3-azabicyclo[3.1.0]hexan-3-yl)methyl)cyclohex-1-en-1-yl)-2-oxo-1,2-dihydropyrimidin-4-yl)piperazine-1-carboxamide hydrochloride salt], for which the MIC in the assay on S. aureus (Sa) was less than 8 µg/mL; with P. aeruginosa (Pa) it was greater than 32 µg/mL; in the assay on A. baumannii (Ab) it was less than 8 µg/mL; in the assay on E. faecalis (Ef), 8 to 32 µg/mL. For the same molecule, the IC50 in the assay with E. coli S30 extract was less than 500 nM; in assay [1] it was no less than 1000 nM.
With `CC1(N)CCN(CC2CC=C(n3ccc(NC(=O)N4CCN(C(=O)C(C)(C)N)CC4)nc3=O)CC2)CC1` (stereo not shown) [Compound 27, 4-(2-Amino-2-methylpropanoyl)-N-(1-(4-((4-amino-4-methylpiperidin-1-yl)methyl)cyclohex-1-en-1-yl)-2-oxo-1,2-dihydropyrimidin-4-yl)piperazine-1-carboxamide hydrochloride salt], the MIC in the assay with S. aureus (Sa) was less than 8 µg/mL; in the assay on P. aeruginosa (Pa), greater than 32 µg/mL; with A. baumannii (Ab), 8 to 32 µg/mL; with E. faecalis (Ef), less than 8 µg/mL. Besides, the IC50 is less than 500 nM with E. coli S30 extract and no less than 1000 nM in assay [1].
As for `CC(C)(N)C(=O)N1CCN(C(=O)Nc2ccn(C3=CCC(CN4CCC(N)CC4)CC3)c(=O)n2)CC1` (stereo not shown) [Compound 28, 4-(2-Amino-2-methylpropanoyl)-N-(1-(4-((4-aminopiperidin-1-yl)methyl)cyclohex-1-en-1-yl)-2-oxo-1,2-dihydropyrimidin-4-yl)piperazine-1-carboxamide hydrochloride salt], the minimal inhibitory concentration (MIC) in the assay on A. baumannii (Ab) and in the assay on E. faecalis (Ef) was greater than 32 µg/mL in each case. The IC50 in the assay on E. coli S30 extract is 500 to 1000 nM; in assay [1] it was no less than 1000 nM.
As for `CC(C)(N)C(=O)N1CCN(C(=O)Nc2ccn(C3=CCC(CN4CC5CC5(N)C4)CC3)c(=O)n2)CC1` (stereo not shown) [Compound 29, 4-(2-Amino-2-methylpropanoyl)-N-(1-(4-((1-amino-3-azabicyclo [3.1.0]hexan-3-yl)methyl)cyclohex-1-en-1-yl)-2-oxo-1,2-dihydropyrimidin-4-yl)piperazine-1-carboxamide hydrochloride salt], the IC50 with E. coli S30 extract is 500 to 1000 nM.

For orientation: IC50 means the concentration that inhibits the measured activity by half. The MIC is the lowest concentration found to suppress growth.
